Measured values from article PMC9299836 (eLife, 2022).
Values joined by “and” are separate entries in the source; they are usually repeats but may differ in a detail not shown here. Identical values can stand only once.

Assays:
mGluR2 [1] = molecular target: mGluR2 (Mus musculus, UniProt Q14BI2, A548F); test: Live-cell FRET, azi-CRD (cysteine-rich domain) sensor in HEK293T cells; conditions: for Mean normalized FRET response, azi-CRD PAM DRC: glutamate + 0.5μM JNJ-42153605, maximal response normalized to 1mM glutamate
mGluR2 [2] = molecular target: T1, mGluR2 (Mus musculus, UniProt Q14BI2); test: Live-cell FRET, SNAP-m2 (VFT domain) inter-subunit sensor in HEK293T cells; conditions: for SNAP-m2 FRET response (PAM DRC) / SNAP-m2 FRET response (PAM DRC), Mean: Glutamate + 0.5μM JNJ-42153605; for SNAP-m2 FRET response (PAM DRC): individual cells, normalized to 1mM glutamate;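 as to all read-outs here: apparent FRET efficiency from whole-membrane ROIs of single cells, corrected for donor bleed-through and background, ΔFRET as treatment minus pretreatment signal, recorded at room temperature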
mGluR2 [3] = molecular target: mGluR2 (Mus musculus, UniProt Q14BI2, INS715F); test: Live-cell FRET, azi-ECL2 (7TM domain, extracellular loop 2) sensor in HEK293T cells; conditions: for Mean normalized azi-ECL2 FRET response: glutamate + 0.5μM modulator, maximal response normalized to 1mM glutamate;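 as to all read-outs here: Cy3/Cy5 click-labeled sensor, whole-membrane ROIs per cell, apparent FRET after bleed-through correction, ΔFRET as treatment minus pre-treatment signal, at room temperature, at least three biological replicates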
mGluR2 [4] = molecular target: T1, mGluR2; test: Functional calcium imaging, SNAP-mGluR2 (no FLAG-tag) with chimeric G protein Gqo5 in HEK293T cells; format: cell-based; set-up: Full length mGluR2 construct with an amber codon (TAG) mutation of amino acid A548 (azi-CRD) or N-terminal SNAP-tag (SNAP-mGluR2); host or cells: HEK293T; conditions: modulator alone; precluded analysis of glutamate potency and efficacy
[5] = 0.5μM JNJ-42153605, ([1 mM glutamate + modulator] - [1 mM glutamate]) × 100

T1 sequence (Q14BI2 19-872): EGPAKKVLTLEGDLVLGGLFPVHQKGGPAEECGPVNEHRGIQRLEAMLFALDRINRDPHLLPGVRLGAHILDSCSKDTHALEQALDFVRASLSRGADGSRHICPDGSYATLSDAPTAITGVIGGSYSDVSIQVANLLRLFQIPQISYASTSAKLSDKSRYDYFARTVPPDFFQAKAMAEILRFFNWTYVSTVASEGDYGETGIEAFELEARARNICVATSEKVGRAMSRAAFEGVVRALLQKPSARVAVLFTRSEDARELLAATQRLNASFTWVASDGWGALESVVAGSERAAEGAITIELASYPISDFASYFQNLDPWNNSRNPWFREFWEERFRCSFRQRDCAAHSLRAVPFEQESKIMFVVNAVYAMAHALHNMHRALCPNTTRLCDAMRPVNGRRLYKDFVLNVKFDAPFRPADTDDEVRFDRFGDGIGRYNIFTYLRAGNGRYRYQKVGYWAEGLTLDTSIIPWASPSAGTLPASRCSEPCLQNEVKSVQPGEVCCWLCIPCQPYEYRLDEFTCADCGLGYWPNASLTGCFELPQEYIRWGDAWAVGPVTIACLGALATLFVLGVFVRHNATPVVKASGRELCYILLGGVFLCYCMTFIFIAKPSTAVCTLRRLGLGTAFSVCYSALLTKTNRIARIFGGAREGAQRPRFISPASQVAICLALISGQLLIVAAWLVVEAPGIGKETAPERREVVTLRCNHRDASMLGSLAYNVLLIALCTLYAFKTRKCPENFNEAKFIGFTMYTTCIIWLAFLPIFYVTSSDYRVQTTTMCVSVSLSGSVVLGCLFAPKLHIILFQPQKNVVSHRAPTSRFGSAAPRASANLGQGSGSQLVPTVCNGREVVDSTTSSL
Chain of mGluR2 (Mus musculus, UniProt Q14BI2, INS715F) (Q14BI2 with tags, fused parts or gaps INS715F): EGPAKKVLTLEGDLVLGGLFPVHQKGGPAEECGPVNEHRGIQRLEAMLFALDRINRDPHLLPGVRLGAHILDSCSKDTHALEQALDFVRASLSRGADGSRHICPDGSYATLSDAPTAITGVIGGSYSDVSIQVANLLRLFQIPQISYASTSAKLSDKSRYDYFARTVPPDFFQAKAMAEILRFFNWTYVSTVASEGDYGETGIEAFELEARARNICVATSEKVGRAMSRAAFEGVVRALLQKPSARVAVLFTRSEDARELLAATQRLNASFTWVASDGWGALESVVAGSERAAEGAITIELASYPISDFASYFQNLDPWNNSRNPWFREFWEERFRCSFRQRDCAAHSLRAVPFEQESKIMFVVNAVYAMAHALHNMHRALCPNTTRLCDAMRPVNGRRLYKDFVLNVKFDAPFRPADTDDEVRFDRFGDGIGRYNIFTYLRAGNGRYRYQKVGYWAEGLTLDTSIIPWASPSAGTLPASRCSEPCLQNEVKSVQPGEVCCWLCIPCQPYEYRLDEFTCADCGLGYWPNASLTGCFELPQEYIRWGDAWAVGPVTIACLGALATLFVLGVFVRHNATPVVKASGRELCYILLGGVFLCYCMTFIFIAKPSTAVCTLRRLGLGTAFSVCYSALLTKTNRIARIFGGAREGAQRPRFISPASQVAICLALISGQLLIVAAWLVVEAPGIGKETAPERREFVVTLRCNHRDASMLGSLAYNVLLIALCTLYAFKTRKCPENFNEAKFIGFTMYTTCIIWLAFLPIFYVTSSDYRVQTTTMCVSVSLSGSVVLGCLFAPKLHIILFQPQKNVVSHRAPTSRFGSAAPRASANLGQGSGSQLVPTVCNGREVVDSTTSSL
Chain of mGluR2 (Mus musculus, UniProt Q14BI2, A548F) (Q14BI2 19-872 A548F): as the sequence (Q14BI2 19-872) above, with A530F counted along it

FC(F)(F)c1c(N2CCC(c3ccccc3)CC2)ccn2c(CC3CC3)nnc12 [JNJ-42153605, 3-cyclopropylmethyl-7-(4-phenylpiperidin-1-yl)-8-trifluoromethyl[1,2,4]triazolo[4,3-a]pyridine]
azi-CRD - ΔEfficacy, Mean ΔEfficacy (mGluR2 [1]; [5]): 43.306
azi-CRD - ΔEfficacy, individual cell responses (mGluR2 [1]; 0.5μM JNJ-42153605, single cells): 82.2727 and 42.4779 and 50.5102 and 41.4773 and 23.5294 and 12.5265 and 26.2467 and 67.4074
Hill slope of glutamate titration (mGluR2 [1]; azi-CRD sensor, + 0.5 μM modulator): 0.84
Live-cell FRET max response normalized to 1mM glutamate (mGluR2 [1]; azi-CRD sensor, Glutamate + 0.5μM JNJ-42153605, individual values (N=8)): 1.235 and 1.125 and 1.262 and 1.674 and 1.823 and 1.425 and 1.5051 and 1.415
Mean max response (normalized max ΔFRET) (mGluR2 [1]; azi-CRD, 1 mM glutamate + 0.5 μM modulator, normalized to 1 mM glutamate): 1.43
Mean ΔPotency (mGluR2 [1]; azi-CRD, 0.5μM modulator, (([modulator + glutamate]EC50 – [glutamate] EC50)/[glutamate] EC50) × 100): -59.6016
ΔPotency, individual cell (mGluR2 [1]; azi-CRD, 0.5μM modulator, calculated from individual cell responses): -88.5847 and -77.2559 and -86.9416 and -84.6067 and -90.4873 and -15.0698 and -44.7131 and -29.6276 and 9.8556
Mean normalized FRET response, azi-CRD PAM DRC (mGluR2 [1]; log[Glutamate] (M) -3): 1.433
Mean normalized FRET response, azi-CRD PAM DRC (mGluR2 [1]; log[Glutamate] (M) -4.1549): 1.38
Mean normalized FRET response, azi-CRD PAM DRC (mGluR2 [1]; log[Glutamate] (M) -4.52288): 1.273
Mean normalized FRET response, azi-CRD PAM DRC (mGluR2 [1]; log[Glutamate] (M) -5): 1.071
Mean normalized FRET response, azi-CRD PAM DRC (mGluR2 [1]; log[Glutamate] (M) -5.39794): 0.8185
Mean normalized FRET response, azi-CRD PAM DRC (mGluR2 [1]; log[Glutamate] (M) -5.82391): 0.5065
Mean normalized FRET response, azi-CRD PAM DRC (mGluR2 [1]; log[Glutamate] (M) -6.52288): 0.2306
Mean normalized FRET response, azi-CRD PAM DRC (mGluR2 [1]; log[Glutamate] (M) -7): 0.112
Mean normalized FRET response, azi-CRD PAM DRC (mGluR2 [1]; log[Glutamate] (M) -7.30103): 0.06166
Mean normalized FRET response, azi-CRD PAM DRC (mGluR2 [1]; log[Glutamate] (M) -7.69897): 0
SNAP-m2 - ΔEfficacy, Mean ΔEfficacy (mGluR2 [2]; [5]): 1.081
SNAP-m2 FRET response (PAM DRC) (mGluR2 [2]; log[Glutamate] (M) -3): -1.011
SNAP-m2 FRET response (PAM DRC), Mean (mGluR2 [2]; log[Glutamate] (M) -3): -1.011
SNAP-m2 FRET response (PAM DRC) (mGluR2 [2]; log[Glutamate] (M) -4.1549): -1.026 and -1.036 and -0.9975 and -0.9514 and -0.995
SNAP-m2 FRET response (PAM DRC), Mean (mGluR2 [2]; log[Glutamate] (M) -4.1549): -1.001
SNAP-m2 FRET response (PAM DRC) (mGluR2 [2]; log[Glutamate] (M) -4.52288): -1.0364 and -1.036 and -1.011 and -0.8324 and -0.8825
SNAP-m2 FRET response (PAM DRC), Mean (mGluR2 [2]; log[Glutamate] (M) -4.52288): -0.9596
SNAP-m2 FRET response (PAM DRC) (mGluR2 [2]; log[Glutamate] (M) -5): -1.011 (2×) and -0.9177 and -0.5203 and -0.5436
SNAP-m2 FRET response (PAM DRC), Mean (mGluR2 [2]; log[Glutamate] (M) -5): -0.8006
SNAP-m2 FRET response (PAM DRC) (mGluR2 [2]; log[Glutamate] (M) -5.39794): -0.9084 and -0.9097 and -0.7581 and -0.2676 and -0.3028
SNAP-m2 FRET response (PAM DRC), Mean (mGluR2 [2]; log[Glutamate] (M) -5.39794): -0.6293
SNAP-m2 FRET response (PAM DRC) (mGluR2 [2]; log[Glutamate] (M) -5.82391): -0.7293 and -0.6949 and -0.532 and -0.1338 and -0.1442
SNAP-m2 FRET response (PAM DRC), Mean (mGluR2 [2]; log[Glutamate] (M) -5.82391): -0.4469
SNAP-m2 FRET response (PAM DRC) (mGluR2 [2]; log[Glutamate] (M) -6): -0.07432 and -0.0721
SNAP-m2 FRET response (PAM DRC), Mean (mGluR2 [2]; log[Glutamate] (M) -6): -0.07321
SNAP-m2 FRET response (PAM DRC) (mGluR2 [2]; log[Glutamate] (M) -6.52288): -0.2853 and -0.2653 and -0.1596 and 0 and -0.02884
SNAP-m2 FRET response (PAM DRC), Mean (mGluR2 [2]; log[Glutamate] (M) -6.52288): -0.1478
SNAP-m2 FRET response (PAM DRC) (mGluR2 [2]; log[Glutamate] (M) -7): -0.1024 and -0.08845 and 0 (3×)
SNAP-m2 FRET response (PAM DRC), Mean (mGluR2 [2]; log[Glutamate] (M) -7): -0.03816
SNAP-m2 FRET response (PAM DRC) (mGluR2 [2]; log[Glutamate] (M) -7.30103): -0.03839 and 0 (4×)
SNAP-m2 FRET response (PAM DRC), Mean (mGluR2 [2]; log[Glutamate] (M) -7.30103): -0.00768
SNAP-m2 FRET response (PAM DRC) (mGluR2 [2]; log[Glutamate] (M) -7.69897): 0
SNAP-m2 FRET response (PAM DRC), Mean (mGluR2 [2]; log[Glutamate] (M) -7.69897): 0
Mean max response (normalized max ΔFRET) (mGluR2 [2]; SNAP-m2, 1 mM glutamate + 0.5 μM modulator, normalized to 1 mM glutamate): 1.01
Mean ΔPotency (mGluR2 [2]; SNAP-m2, 0.5μM modulator, (([modulator + glutamate]EC50 – [glutamate] EC50)/[glutamate] EC50) × 100): -64.9475
Mean ΔEfficacy (mGluR2 [2]; SNAP-m2, 0.5μM modulator, ([1 mM glutamate + modulator] - [1 mM glutamate]) × 100): 1.081
Hill slope of glutamate titration (mGluR2 [2]; SNAP-m2 sensor, + 0.5 μM modulator): –0.95
azi-ECL2 - ΔEfficacy, Mean ΔEfficacy (mGluR2 [3]; [5]): -1.362
Mean ΔPotency (mGluR2 [3]; 0.5μM modulator, (([modulator + glutamate]EC50 – [glutamate] EC50)/[glutamate] EC50) × 100): -56.3563
ΔPotency, individual cell responses (mGluR2 [3]; 0.5μM modulator, single cells, (([modulator + glutamate]EC50 – [glutamate] EC50)/[glutamate] EC50) × 100): -56.3361 and -69.1679 and -73.0287 and -52.3819 and -40.5992 and -58.985 and -50.7357 and -45.7659 and -53.2747 and -65.0568 and -56.2788 and -59.6269 and -60.7335 and -44.1256 and -58.5158 and -54.4905 and -58.9548
ΔEfficacy, individual cell responses (mGluR2 [3]; 0.5μM modulator, single cells, ([1 mM glutamate + modulator] - [1 mM glutamate]) × 100): -2.941 and 0.7843 and -9.091 and 0.4875 and -2.828 and 1.987 and -3.4754 and -3.284 and -3.415 and -12.5737 and -5.278 and 16.4947 and 5.4247
Change in glutamate efficacy by FRET signal at ECL2 (mGluR2 [3]; azi-ECL2, 0.5 μM modulator): no change in efficacy
Mean max response (normalized max ΔFRET) (mGluR2 [3]; azi-ECL2, 1 mM glutamate + 0.5 μM modulator, normalized to 1 mM glutamate): 0.99
Hill slope of glutamate titration (mGluR2 [3]; azi-ECL2 sensor, + 0.5 μM modulator): 0.97
Mean normalized azi-ECL2 FRET response (mGluR2 [3]; log[Glutamate] (M) -3): 0.9864
Mean normalized azi-ECL2 FRET response (mGluR2 [3]; log[Glutamate] (M) -4.1549): 0.9409
Mean normalized azi-ECL2 FRET response (mGluR2 [3]; log[Glutamate] (M) -4.52288): 0.8615
Mean normalized azi-ECL2 FRET response (mGluR2 [3]; log[Glutamate] (M) -5): 0.7669
Mean normalized azi-ECL2 FRET response (mGluR2 [3]; log[Glutamate] (M) -5.39794): 0.6334
Mean normalized azi-ECL2 FRET response (mGluR2 [3]; log[Glutamate] (M) -5.82391): 0.3885
Mean normalized azi-ECL2 FRET response (mGluR2 [3]; log[Glutamate] (M) -6.52288): 0.08595
Mean normalized azi-ECL2 FRET response (mGluR2 [3]; log[Glutamate] (M) -7): 0.01271
Mean normalized azi-ECL2 FRET response (mGluR2 [3]; log[Glutamate] (M) -7.30103): 0
Mean normalized azi-ECL2 FRET response (mGluR2 [3]; log[Glutamate] (M) -7.69897): 0
Effect of modulator itself on intracellular calcium flux (mGluR2 [4]): Direct activation of mGluR2
